Measured values reported in patent US10369145B2, “Coumarin derivatives and methods of use in treating hyperproliferative diseases” (DISCOVERYBIOMED, INC., priority 2013, dated 2019).
Where two headings read alike, the source gives them in different places.

Legend:
SK-OV-3 = test system: SK-OV-3
Text: TGI means the drug concentration resulting in total growth inhibition or “cytostasis.” LC50 is the concentration of drug resulting in a 50% reduction in the measured cytosolic ATP at the end of the drug treatment as compared to that at the beginning, indicating a net loss of cells following treatment (cytotoxicity).
A major limitation with the anti-mitotic drugs in particular and in conventional chemotherapeutics in general, is their susceptibility to cellular mechanisms of adaptive/intrinsic multi-drug resistance (i.e., MDR efflux pumps such as p-glycoprotein, MRP1).

UACC-257 = assay: NCI 60 panel: UACC-257 (Melanoma); assay type: cell-based
CAKI-1 = assay: NCI 60 panel: CAKI-1 (Renal Cancer); assay type: cell-based
SF-295 = assay: NCI 60 panel: SF-295 (CNS Cancer); assay type: cell-based
NCI-H522 = assay: NCI 60 panel: NCI-H522 (Non-Small Cell Lung Cancer); assay type: cell-based
A549 = assay: NCI 60 panel: A549 (Non-Small Cell Lung Cancer); assay type: cell-based
OVCAR-5 = assay: NCI 60 panel: OVCAR-5 (Ovarian Cancer); assay type: cell-based
[1] = test system: primary human ADPKD cystic epithelial cell lines, ARCaP-M, CAKI-1; assay: Viability in cystic ADPKD cells, prostate and kidney cancer lines; assay type: cell-based
Experimental: The compounds described herein are effective for inhibiting cellular proliferation in hyperproliferative cell types. To study the effects of these compounds, an assay was developed to differentiate the effects of the compounds on proliferating versus confluent cells. The assay design generates a proliferating density 24 hours after seeding and provides a 3-day active cell growth/doubling window in which to gauge the anti-proliferative effect of the compounds described herein. […] In this 3-day growth window, cell number increases with daily doublings across the 72-hour period (see FIG. 1).
In each assay design, compounds were added at the 24-hour timepoint after cell seeding. The effect of the compounds, relative to vehicle control and to VelCade (a proteasome inhibitor approved in the U.S. for treating relapsed multiple myeloma and mantle cell lymphoma) as a positive control, was assessed across the 3-day growth window for proliferating cells and on an already near confluent culture of cells for the same time period. Normal cells were handled in the same manner, with some adjustment of seeding density needed in select cases. This assay design holds for the data series presented below.
Cell number at the end of the assay was determined using the CELLTITER-GLO Luminescent Cell Viability Assay (Promega; Madison, Wis.). The CELLTITER-GLO Luminescent Cell Viability Assay is a homogeneous method of determining the number of viable cells in culture based on quantitation of the ATP present, an indicator of metabolically active cells. IC50 values were calculated. Cell number (number of cells per well) was converted to the % of DMSO matched controls. Each measurement was performed in triplicate. Typical dosage ranges tested were from 250 picomolar to 50 micromolar.
The compounds as described herein were tested on primary human ADPKD cystic epithelial cell lines as well as two common cancer cell lines from the prostate (ARCaP-M) and kidney (CAKI-1).

A498 = assay: NCI 60 panel: A498 (Renal Cancer); assay type: cell-based
tubulin = assay: Biochemical tubulin polymerization; conditions: FIG. 11C
Experimental: Following 24 hours of treatment with Compound DBM 228, Compound DBM 318, and Compound DBM 328, caspase 3/7 activation in U251MG cells was determined. The detection of caspase 3/7 activation in U251MG cells indicates activation of apoptosis. Tubulin polymerization was determined for Compounds DBM 227, DBM 228, DBM 308, DBM 318, DBM 701, DBM 707, DBM 715, paclitaxel, vincristine, and negative control Compound DBM 328. […] Paclitaxel served as polymerization enhancer control and vincristine served as polymerization inhibitor control.

c-Jun phosphorylation = assay: Intracellular signaling molecule phospho-array; assay type: cell-based; conditions: human hyperproliferative GBM cancer cells; effect requiring 24 hours
Experimental: An intracellular signaling molecule phospho-array was performed in compound-treated human hyperproliferative GBM cancer cells and in vehicle-treated human hyperproliferative GBM cancer cells. The tested compounds included Compound DBM 228 (002-N8-28), Compound DBM 328 (003-8COOH), and Compound DBM 308 (003-8Cl). DMSO served as the vehicle control. The numbers reflect pairs of spots in the typical dot blots that correspond to major kinases and other signaling proteins. Compound DBM 328 (003-8COOH) is a negative control for this array experiment to complement the DMSO vehicle control.

NCI-H23 = assay: NCI 60 panel: NCI-H23 (Non-Small Cell Lung Cancer); assay type: cell-based
SF-539 = assay: NCI 60 panel: SF-539 (CNS Cancer); assay type: cell-based
NCI-60 cell panel = assay: NCI-60 cell panel, whole panel; assay type: cell-based, human; conditions: average in the NCI-60 cell panel
[2] = test system: U251MG glioblastoma cells; assay: Propidium iodide-based cell cycle analysis; conditions: 24 h
Experimental: Cell cycle analysis was performed on U251-MG cells to determine at what point in the cell cycle the compounds described herein were acting. U251MG glioblastoma cells were treated for 24 h with increasing concentrations of Compound DBM 228.
However, at higher nM doses, the cells appear to progress toward apoptosis and programmed cell death, given the higher % of cells in pre-G0/G1.

U251 = assay: NCI 60 panel: U251 (CNS Cancer); assay type: cell-based
[3] = read-out: LC50 (the source's name)

SMILES: COc1ccccc1Nc1nc(-c2cc3cccc(N)c3oc2=O)cs1 [Compound DBM 228]
- CC50 (SK-OV-3): > 100000 nM
- GI50 (SK-OV-3; SK-OV-3): 410 nM
- TGI (SK-OV-3; SK-OV-3): 22000 nM
- GI50 (SK-OV-3; SK-OV-3, as stated in text): 330 nM
- TGI (UACC-257): 33700 nM
- CC50 (UACC-257; [3]): > 100000 nM
- GI50 (CAKI-1): 115 nM
- TGI (CAKI-1): 27900 nM
- CC50 (CAKI-1; [3]): > 100000 nM
- GI50 (SF-295): 42.4 nM
- TGI (SF-295): 1490 nM
- CC50 (SF-295; [3]): 41500 nM
- GI50 (NCI-H522): 24.7 nM
- TGI (NCI-H522): 94 nM
- CC50 (NCI-H522; [3]): > 100000 nM
- GI50 (A549): 97 nM
- TGI (A549): 22600 nM
- CC50 (A549; [3]): > 100000 nM
- GI50 (OVCAR-5): 592 nM
- TGI (OVCAR-5): 15700 nM
- CC50 (OVCAR-5; [3]): 51900 nM
- effect on cells, in words ([1]; at and around the 1 micromolar dose): cytostatic plateau
- effect on cells, in words ([1]; higher mid-micromolar concentrations): cytotoxic effect
- effect on cells, in words ([1]; nanomolar ranges, 12-point CRC): growth arrested but not killed
- GI50 (A498): 35.4 nM
- TGI (A498): 4420 nM
- CC50 (A498; [3]): > 100000 nM
- effect on biochemical tubulin polymerization, in words (tubulin): modestly inhibited
- effect on c-Jun phosphorylation, in words (c-Jun phosphorylation): potentiation of c-Jun phosphorylation
- GI50 (NCI-H23): 504 nM
- TGI (NCI-H23): 15800 nM
- CC50 (NCI-H23; [3]): 63100 nM
- GI50 (SF-539): 109 nM
- TGI (SF-539): 850 nM
- CC50 (SF-539; [3]): 29800 nM
- GI50 (NCI-60 cell panel): 250 nM
- percentage of cells in G0/G1 ([2]; 40 nM): 52.2%
- percentage of cells in G2/M ([2]; 40 nM): 30.2%
- percentage of cells in Pre-G0/G1 ([2]; 40 nM): 3.2%
- percentage of cells in S ([2]; 40 nM): 14.4%
- percentage of cells in G0/G1 ([2]; 100 nM): 19.7%
- percentage of cells in G2/M ([2]; 100 nM): 41.1%
- percentage of cells in Pre-G0/G1 ([2]; 100 nM): 13.6%
- percentage of cells in S ([2]; 100 nM): 25.6%
- percentage of cells in G0/G1 ([2]; 400 nM): 1.8%
- percentage of cells in G2/M ([2]; 400 nM): 49.3%
- percentage of cells in Pre-G0/G1 ([2]; 400 nM): 43.1%
- percentage of cells in S ([2]; 400 nM): 5.8%
- cell cycle effect, in words ([2]; increasing concentrations): G2/M arrest
- GI50 (U251): 46.8 nM
- TGI (U251): 10600 nM
- CC50 (U251; [3]): 35700 nM
